This note sets out measurements from ChEMBL document CHEMBL3045265, “Synthesis and Fungicidal Activity of 2-Alkoxyimino-2-cyanoacetamide Derivatives” (1998).

SMILES strings stand for the structures. Where only a bound is given, the exact number is not on record here.

The first experiment deals with Pseudoperonospora cubensis. Briefly: Fungicidal activity against Pseudoperonospora cubensis in cucumber plant assessed as cucumber downy mildew disease control at 31.3 ppm at 22 +/- 2 degC, 98% RH measured after 10 days. The experiment is classed as functional.
As to `CO/N=C(\C#N)C(=O)NC1=NOC(C)(CCl)C1` (stereo unspecified), the Activity came to 70%. Still for that read-out and setting: for `CC(C)O/N=C(\C#N)C(=O)NC1=NOC(C)(C)C1` the value was 70%; for `CO/N=C(\C#N)C(=O)NC1=NOC(C)(CO)C1` (stereo unspecified), 70%.

As to `C=CC1CC(NC(=O)/C(C#N)=N/OC)=NO1` (stereo unspecified), the Activity stood at 70%. With `CCO/N=C(\C#N)C(=O)NC1=NOC(C)(C)C1`, the Activity stood at 70%. Still for that read-out and setting: for `CO/N=C(\C#N)C(=O)NC1=NOC(CCl)C1` (stereo unspecified) the value was 70%; for `CO/N=C(\C#N)C(=O)NC1=NOC(C)C1` (stereo unspecified), 70%.

In the next experiment the test system is Pseudoperonospora cubensis. Description: Fungicidal activity against Pseudoperonospora cubensis in cucumber plant assessed as cucumber downy mildew disease control at 500 ppm at 22 +/- 2 degC, 98% RH measured after 10 days. The experiment is classed as functional.
On to `CO/N=C(\C#N)C(=O)NC1=NOC(Cc2ccccc2)C1` (stereo unspecified), for which the Activity is reported as under 70%. In the case of `CC1(C)CC(NC(=O)/C(C#N)=N/OCc2ccccc2)=NO1`, the Activity is given as under 70%. As for `CO/N=C(\C#N)C(=O)NC1=NOC(c2ccccc2)C1` (stereo unspecified), the Activity is under 70%. Same read-out and setting: next, `CC1(C)CC(NC(=O)/C(C#N)=N/OCC#N)=NO1`: under 70%. For the compound `CO/N=C(\C#N)C(=O)NC(=O)ON=C(C)C`, the Activity amounted to 70%. In the case of `CO/N=C(\C#N)C(=O)NC(=O)NNS(=O)(=O)c1ccccc1`, the Activity is on record as under 70%. As to `CCOC(=O)NNC(=O)NC(=O)/C(C#N)=N/OC`, the Activity is listed as under 70%. Consider `C=CC1CC(NC(=O)/C(C#N)=N/OC)=NO1` (stereo unspecified), for which the Activity was under 70%. Consider `CO/N=C(\C#N)C(=O)NC1=NOC(C)(C)C1C` (stereo unspecified), for which the Activity worked out at 70%. For the compound `CO/N=C(\C#N)C(=O)Nc1cc(C)cs1`, the Activity is recorded as under 70%. As to `CO/N=C(\C#N)C(=O)N(CC(=O)OC)C1=NOC(C)(C)C1`, the Activity is reported as under 70%. With `COCN(C(=O)/C(C#N)=N/OC)C1=NOC(C)(C)C1`, the Activity was under 70%. Still for that read-out and setting: next, `CCN(C(=O)/C(C#N)=N/OC)C1=NOC(C)(C)C1`: under 70%.

Take `CO/N=C(\C#N)C(=O)N(C)C1=NOC(C)(C)C1`: the Activity is listed as under 70%. For `CO/N=C(\C#N)C(=O)NC(=O)OCC(C)(C)C(=O)OC`, the Activity is reported as under 70%. On to `CO/N=C(\C#N)C(=O)NC(=O)NNC(=O)c1ccccc1`, for which the Activity is given as under 70%. For `CO/N=C(\C#N)C(=O)Nc1nnc(C)s1`, the Activity is under 70%. Still for that read-out and setting: for `CCC1ON=C(NC(=O)/C(C#N)=N/OC)C1CC` (stereo unspecified) the value was 70%; for `CO/N=C(\C#N)C(=O)NC(=O)OC(C)(C)C(=O)OC`, 70%; for `CO/N=C(\C#N)C(=O)NC1=NOC(C2CCCCC2)C1` (stereo unspecified), under 70%. For the compound `CO/N=C(\C#N)C(=O)NC(=O)OCC(=O)N(C)c1ccccc1`, the Activity was under 70%.

In another experiment the test system is Pseudoperonospora cubensis. Description: Fungicidal activity against Pseudoperonospora cubensis in cucumber plant assessed as cucumber downy mildew disease control at 125 ppm at 22 +/- 2 degC, 98% RH measured after 10 days. The experiment is classed as functional.
Regarding `CO/N=C(\C#N)C(=O)NC1=NOC(CCl)(CCl)C1`, the Activity came out at 70%. For `CO/N=C(\C#N)C(=O)NC1=NOC(CO)C1` (stereo unspecified), the Activity stood at 70%.

As to `CO/N=C(\C#N)C(=O)NC(=O)OC(C)C`, the Activity worked out at 70%. Still for that read-out and setting: for `COCO/N=C(\C#N)C(=O)NC1=NOC(C)(C)C1` the value was 70%; for `C=CCO/N=C(\C#N)C(=O)NC1=NOC(C)(C)C1`, 70%.

On to `CO/N=C(\C#N)C(=O)Nc1cc(C)on1`, for which the Activity stood at 70%. On the same count and under the same terms, for `CCC1CC(NC(=O)/C(C#N)=N/OC)=NO1` (stereo unspecified) the value was 70%; for `CCCCC1CC(NC(=O)/C(C#N)=N/OC)=NO1` (stereo unspecified), 70%; for `CO/N=C(\C#N)C(=O)NC1=NOC(C(C)C)C1` (stereo unspecified), 70%.

With `CCC1(CC)CC(NC(=O)/C(C#N)=N/OC)=NO1`, the Activity is 70%. `CCC1(C)CC(NC(=O)/C(C#N)=N/OC)=NO1` (stereo unspecified): the Activity worked out at 70%.

For `CO/N=C(\C#N)C(=O)NC1=NOCC1C` (stereo unspecified), the Activity was determined as 70%. Consider `CO/N=C(\C#N)C(=O)NC1=NOC(C(C)(C)C)C1` (stereo unspecified), for which the Activity is on record as 70%. Regarding `CO/N=C(\C#N)C(=O)NC1=NOC(C)C1C` (stereo unspecified), the Activity stood at 70%. In the case of `CO/N=C(\C#N)C(=O)NC1=NOCC1`, the Activity is recorded as 70%.

With `CCCC1(C)CC(NC(=O)/C(C#N)=N/OC)=NO1` (stereo unspecified), the Activity amounted to 70%. Still for that read-out and setting: next, `CO/N=C(\C#N)C(=O)NC(=O)OC(C)(C)C`: 70%.

The next experiment relates to Pseudoperonospora cubensis. Description: Fungicidal activity against Pseudoperonospora cubensis in cucumber plant assessed as cucumber downy mildew disease control at 7.8 ppm at 22 +/- 2 degC, 98% RH measured after 10 days. The experiment is classed as functional.
Take `CO/N=C(\C#N)C(=O)NC1=NOC(C)(C)C1`: the Activity turned out to be 70%.
